Experimental findings from the METLIN SMRT retention time set (Domingo-Almenara et al. 2019) are described below.

A short description of the data set: gradient 5% acetonitrile 3 min, to 50% in 2 min, to 85% in 15 min, held 3 min, 100 µL/min. The conditions noted are these: column: Zorbax Extend-C18 2.1 x 50 mm; eluents: water / acetonitrile, 0.1% formic acid. The method in brief: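 Each retention time is based on an adduct peak selected computationally and verified by manual inspection. Measurements used HPLC–quadrupole time-of-flight mass spectrometry in positive and negative ionization mode on mixtures of ~100 pure standards. Chromatography ran on a Zorbax Extend-C18 column (2.1 × 50 mm, 1.8 μm) at 100 μL/min with water and acetonitrile, each containing 0.1% formic acid, and dead and dwell volumes of 40 μL and 900 μL.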
Take `Cc1cc(C(=O)Nc2nc3c(C)cc(Cl)cc3s2)on1`: the RP-LC retention time stood at 985 s. The result for `N#Cc1ccc(NC(=O)C2CCN(S(=O)(=O)c3cc(-c4noc(C5CCC5)n4)cs3)CC2)cc1` reads 1050 s; that for `COC(=O)c1c(C)[nH]c(C(=O)N2CCCC(C(=O)N3CCCCCC3)C2)c1C` (stereo not drawn), 723 s; that for `O=C(Nc1ccc(F)c(F)c1)C1CCN(c2nccnc2Sc2ccccc2)CC1`, 1110 s.

Consider `Cc1ccc(NC(=O)C2CCc3sc(C(=O)N4CCOCC4)cc3C2)cc1C` (stereo not drawn), for which the RP-LC retention time is 570 s. With `COc1ccc(N2CCN(S(=O)(=O)c3cc(-c4cc(C(F)(F)F)[nH]n4)sc3C)CC2)cc1` the figure was 1090 s. With `COc1ccc(NS(=O)(=O)c2cc3n(c2)CCCNC3=O)cc1` the figure was 615 s; with `Cc1ccc(NS(=O)(=O)c2cc3n(c2)CCCN(C(C)C)C3=O)cc1`, 778 s; with `COc1cccc(Cn2cccc2-c2nc(-c3ccncc3)no2)c1`, 1060 s. With `O=C(COc1ccc(Cl)cc1Cl)N(Cc1ccccn1)Cc1ccco1` the figure was 830 s; with `Clc1ccc(CCCOCCCN2CCCCC2)cc1`, 744 s; with `Cc1cc(C)n(-c2ccc(=O)n(CC(=O)N3CCN(c4ncccn4)CC3)n2)n1`, 623 s. `COc1ccc(OC)c(NC(=O)N2CCC(n3c(C)nc4cccnc43)CC2)c1` showed an RP-LC retention time of 631 s. With `COc1ccccc1N1CCN(C(=O)c2ccc(OCc3nc(C4CC4)cs3)cc2)CC1` the figure was 911 s; with `O=C(c1cc2c(s1)CCC(C(=O)N1CCOCC1)C2)N1CCCCC1` (stereo not drawn), 701 s.

As for `Cc1ccccc1C(=O)Nc1nnc(SCc2nnc(-c3ccccc3)o2)s1`, the RP-LC retention time is 917 s. With `O=S(=O)(c1cccnc1)N1CC(c2nc(CCOCC3CCOCC3)no2)C1` the figure was 710 s.

`CC(=O)c1ccc(NC(=O)CC2COc3ccccc3NC2=O)cc1` (stereo not drawn) gave an RP-LC retention time of 677 s. As to `CC1CC(C)CN(S(=O)(=O)N2CCCC(C(=O)NCc3ccc(F)cc3)C2)C1` (stereo not drawn), the RP-LC retention time came to 1060 s.

Consider `CCc1ccc(C(C)NS(=O)(=O)c2c(C)c(-c3nnc(C4CCC4)o3)n(C)c2C)cc1` (stereo not drawn), for which the RP-LC retention time is 1060 s.

The molecule `COCCN1C(=O)c2ccccc2C(C(=O)Nc2nc(C)cs2)C12CCCCC2` (stereo not drawn) displayed an RP-LC retention time of 810 s. In the case of `CCCNC(=O)N1CCCN(C2=NS(=O)(=O)C(c3ccc(CC)cc3)=C2C)CC1`, the RP-LC retention time is 809 s. The molecule `Cc1ccc(C)c(C(=O)NCc2ccc(-n3ccnc3)cc2)c1` registered an RP-LC retention time of 630 s. With `Cc1ccccc1-c1nc2cnccn2c1NCCC(=O)NCc1ccco1` the figure was 624 s; with `O=C(Cn1cnc(-c2nc(-c3ccccc3)cs2)c1)Nc1ccccc1`, 819 s. With `O=C(NCCc1nc2cccnc2n1-c1ccccc1)c1ccccc1` the figure was 708 s. `O=C(NCc1ccc(F)cc1)NC1CCN(C(=O)N2C[C@H]3C[C@H](C2)[C@H]2CCCC(=O)N2C3)CC1` gave an RP-LC retention time of 658 s. Take `Cc1nc(C)c(-c2ccc(SCC(=O)Nc3ccc4c(c3)OCCO4)nn2)s1`: the RP-LC retention time came to 690 s. The result for `Cc1cccc(-n2c(=O)c3c(cc(C)n3C)n(CC(=O)Nc3ccc(F)c(Cl)c3)c2=O)c1` reads 940 s. The result for `CN(C1CCCCC1)S(=O)(=O)c1ccc(NC(=O)c2ccco2)cc1` reads 883 s. The result for `O=C(NC(c1ccccc1)c1nnc(N2CCOCC2)o1)c1cccc(Cl)c1` (stereo not drawn) reads 796 s; that for `CN(CCc1noc(-c2ccc(Cl)cc2)n1)C(=O)Nc1ccccc1F`, 952 s. `COc1cccc(NC(=O)N2CCN(c3nc4ccccc4n3Cc3ccccc3)CC2)c1` registered an RP-LC retention time of 614 s.

In turn, `O=c1ccc(-c2ccc(F)cc2)nn1CCc1nc(-c2ccccc2Br)no1` had an RP-LC retention time of 1010 s. With `COc1ccc2c(c1)C=C(C(=O)NCCc1ccccc1)C=CO2` the figure was 959 s. In turn, `Cc1cc(NS(=O)(=O)c2ccc(Nc3nc(-c4ccc(Cl)c(Cl)c4)cs3)cc2)no1` returned an RP-LC retention time of 1130 s.

The molecule `CCOC(=O)c1[nH]c(C)c(CCC(=O)N2CCC(C(=O)NCCc3c(C)noc3C)CC2)c1C` displayed an RP-LC retention time of 695 s.

Consider `Cc1nc(-c2cccc(F)c2)sc1C(=O)N(C)C`, for which the RP-LC retention time worked out at 799 s.

Turning to `CCc1nc2cc(N3CCC(C(=O)NCc4cccc(F)c4)CC3)cnc2nc1CC`, the RP-LC retention time is 840 s. With `CS(=O)(=O)CCNCc1nc(-c2ccc3ncnc(Nc4ccc(OCc5cccc(F)c5)c(Cl)c4)c3c2)cs1` the figure was 717 s. The result for `CC(C)NC(=O)c1cn2c(n1)CCCC2` reads 545 s; that for `CCOc1ccccc1NC(=O)C1CCCN(c2nc3c(s2)c(C)nn3-c2ccccc2)C1` (stereo not drawn), 1300 s.

The molecule `CCOc1ccc2c(n1)CCN(C(=O)Nc1ccc(C)cc1C)C2` showed an RP-LC retention time of 852 s.

Regarding `Cc1ccc(-c2noc(C3CC3)n2)cc1S(=O)(=O)N1CCC(C(=O)N2CCc3ccccc32)CC1`, the RP-LC retention time was found to be 1140 s. `COc1ccc(NC(=O)c2c(O)c3cccnc3n(-c3ccc(F)cc3)c2=O)cc1F` displayed an RP-LC retention time of 1210 s.

In the case of `O=C(Nc1ccc(Br)cc1F)N1CCc2nc(-c3ccc(F)cc3)ncc2C1`, the RP-LC retention time came to 1050 s. With `CCc1ccc(NC(=O)C2CCN(C(=O)C3Sc4ccccc4NC3=O)CC2)cc1` (stereo not drawn) the figure was 760 s.

Regarding `CCCC(=O)n1nc(C)c(S(=O)(=O)N2CCOCC2)c1C`, the RP-LC retention time came out at 954 s. Molecule `CCOC(=O)c1ccccc1NC(=O)N(Cc1cc(=O)[nH]c2ccccc12)C(C)C` registered an RP-LC retention time of 891 s.

For the molecule `C[C@H]1CC[C@@H]2N(C1)C[C@H]1[C@@H]3C[C@H]4[C@@H](CC(=O)[C@H]5C[C@@H](O)CC[C@@]54C)[C@@H]3CC[C@H]1[C@]2(C)O`, the RP-LC retention time amounted to 601 s. As to `Cc1ccccc1C(=O)Nc1ccc(C(=O)N2CCCC(N(C)C)c3ccccc32)cc1` (stereo not drawn), the RP-LC retention time was 712 s. The result for `CCNC(=O)c1cnn(-c2cc(-c3nc(CC)no3)ccn2)c1C` reads 806 s; that for `CCN1C(=O)c2cccnc2Sc2cc(NC(=O)C3CCCC3)ccc21`, 816 s. The molecule `CCc1nnc(-c2ccc3ccn(CC(=O)Nc4ccc(NC(C)=O)cc4)c3c2)o1` gave an RP-LC retention time of 703 s. `Cc1noc(-c2nc(-c3cccc(C(F)(F)F)c3)no2)n1` had an RP-LC retention time of 1080 s.

The molecule `CC(C)CCNC(=O)c1nnc(-c2ccc(S(=O)(=O)N3CCCCC3)cc2)o1` showed an RP-LC retention time of 1030 s. Regarding `O=S(=O)(c1cccc2cccnc12)N1CCc2ccccc2C1`, the RP-LC retention time is 876 s. With `O=C(Nc1ccc(F)cc1)C1CCCN(c2nnc3ccc(Cl)cn23)C1` (stereo not drawn) the figure was 689 s; with `c1ccc2c(-c3nc(C4CC4)no3)nnc(NC3CCCC3)c2c1`, 725 s. The result for `CN1C(=O)c2cc(C(=O)NCCc3ccc(Cl)cc3)nn2CC1(C)C(=O)NCc1ccccc1` (stereo not drawn) reads 823 s; that for `O=C(NCc1ccccc1F)c1ccc2ncnc(N3CCCC3)c2c1`, 623 s. Molecule `Cc1cc2c(cc1S(=O)(=O)N1CCCC1C(=O)Nc1ccc(C(C)C)cc1)OCC(=O)N2` (stereo not drawn) came in with an RP-LC retention time of 902 s. Consider `O=C(COc1ccc(F)cc1F)Nc1cccc(-c2ccc(N3CCOCC3)nn2)c1`, for which the RP-LC retention time came to 660 s.

`Cc1nnc(NC(=O)CSc2nnc(CCc3nc4ccccc4[nH]3)o2)s1`: the RP-LC retention time is 542 s. In turn, `COc1ccccc1OCCNC(=O)CCc1nnc2c3cc(-c4ccc(F)cc4)nn3ccn12` displayed an RP-LC retention time of 752 s.

Consider `O=C(NCC(c1cccnc1)N1CCN(Cc2ccccc2)CC1)Nc1ccccc1Cl` (stereo not drawn), for which the RP-LC retention time came out at 554 s. With `CN1C(=O)C2(CCN(C(=O)c3ccc(Cl)cc3)C2)c2ccccc21` (stereo not drawn) the figure was 851 s; with `O=C(Cc1ccccc1)N1CCCCC1c1nc(-c2cnccn2)no1` (stereo not drawn), 812 s.

`Cc1nc2cc(-c3noc(-c4ccncc4)n3)ccc2n(C2CCCC2)c1=O` had an RP-LC retention time of 1130 s. The molecule `COc1ccc(OC)c(Nc2c(-c3ccc(SC)cc3)nc3cnccn23)c1` yielded an RP-LC retention time of 923 s. With `COCCNc1oc(-c2ccc([N+](=O)[O-])cc2)nc1C#N` the figure was 766 s; with `CC(=O)N(Cc1nn(C)c2c1CN(Cc1cn[nH]c1-c1cccs1)CC2)c1ccccc1`, 589 s. With `COC(=O)c1cc(S(=O)(=O)N2CCCC2C(=O)Nc2ccc(C)cc2)cn1C` (stereo not drawn) the figure was 869 s; with `CC(C)N1CCN(Cc2ccc(C(=O)NCCC3=CCCCC3)cc2)C(=O)C1=O`, 760 s; with `Cc1ccc(N(C)C(=O)c2cc(C)n3nc(-c4ccccn4)cc3n2)cc1`, 763 s. `Cn1cc(C(=O)NCc2ccccn2)c2cccnc21` displayed an RP-LC retention time of 552 s. For `Cc1cccc(C(=O)N2CCC3(C2)C(=O)N(C)c2ccccc23)c1` (stereo not drawn), the RP-LC retention time was determined as 794 s.

On to `CS(=O)(=O)Nc1ccc2oc3c(OC(F)F)ccc(C(=O)Nc4c(Cl)cncc4Cl)c3c2c1`, for which the RP-LC retention time came out at 967 s.
